Columns and labels:
[1] = ABTS•+ decolorization assay
In short: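 Compounds (10 mM DMSO stocks, diluted) added to ABTS•+ radical generated by potassium persulfate oxidation of ABTS. Decolorization followed as absorbance at room temperature, with Trolox as standard.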

[2] = Inhibition of linoleic acid lipid peroxidation (AAPH)
In short: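 Sodium linoleate oxidation was initiated by AAPH in 0.05 M phosphate buffer, pH 7.4, at 37 °C, with test compound present and DMSO as blank. Conjugated diene hydroperoxide formation was followed as the absorbance increase at 234 nm.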

[3] = Lipophilicity as RM values by RP-TLC; assay type: physicochemical; set-up: key: RM = log[(1/Rf) − 1]; settings: methanol/water 70/30, SD < 10%
In short: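 Reversed-phase TLC on silica gel plates impregnated with 5% (v/v) liquid paraffin, methanol/water 70/30 (v/v) mobile phase, saturated tanks at 24 °C, UV detection. RM = log[(1/Rf) − 1] from five Rf measurements.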

[4] = system: L929 mouse fibroblasts cells; test: Cytotoxicity, propidium iodide fluorescence method; assay type: cell-based; settings: 24-h incubation
In short: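 L929 cells in EMEM with 10% horse serum were allowed to attach for 24 h, then exposed to 1, 10, 20, 50 and 100 μM compound for 24 h at 37 °C. Cells were detached, stained with propidium iodide, and cell death was measured by flow cytometry.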

| Structure (SMILES) | ABTS•+ Inhb. % @ 100 μM [1] | AAPH% @ 100 μM (anti-lipid peroxidation) [2] [%] | RM [3] | 1 μM Average (% pi) ± σ [4] [%] | 10 μM Average (% pi) ± σ [4] [%] | 20 μM Average (% pi) ± σ [4] [%] | 50 μM Average (% pi) ± σ [4] [%] | 100 μM Average (% pi) ± σ [4] [%] |
| --- | --- | --- | --- | --- | --- | --- | --- | --- |
| O=C(/C=C/c1cccc2ccccc12)c1ccccc1O [b4, (E)-1-(2-hydroxyphenyl)-3-(naphthalen-1-yl) prop-2-en-1-one] | No | 82 | −0.03 | – | – | – | – | – |
| O=C(/C=C/C=C/c1ccc([N+](=O)[O-])cc1)c1ccc(OCCCOc2ccc(C(=O)/C=C/C=C/c3ccc([N+](=O)[O-])cc3)cc2)cc1 [c11, (2E,2′E,4E,4′E)-1,1′-((propane-1,3-diylbis(oxy))bis(4,1-phenylene))bis(5-(4-nitrophenyl)penta-2,4-dien-1-one)] | No | 68 | −0.88 | 6.4 ± 0.4 | 19.07 ± 7.23 | 34.63 ± 0.31 | 64.53 ± 3.07 | 64.53 ± 3.07 |
| CC(=O)c1ccc(OCCOc2ccc(C(C)=O)cc2)cc1 [di, 1,1′-((ethane-1,2-diylbis(oxy))bis(4,1-phenylene))diethanone] | No | 22 | 0.67 | 4.94 ± 1.02 | 9.05 ± 0.58 | 16.78 ± 5.61 | 33.22 ± 9.65 | 33.22 ± 9.65 |
| CC(=O)c1ccc(OCCCCCCCOc2ccc(C(C)=O)cc2)cc1 [dvi, 1,1′-((heptane-1,7-diylbis(oxy))bis-(4,1-phenylene)) diethanone] | No | 12 | 0.32 | 0.37 ± 0.52 | 1.92 ± 1.02 | 1.79 ± 1.53 | 2.55 ± 0.5 | 2.55 ± 0.5 |
